According to patent publication US7217557B1, “Three-dimensional structure of polyketide synthases” (The Salk Institute for Biological Studies, priority 1999, dated 2007):
“Also recorded” adds a separate entry of the source.

Tests used:
[1] = TLC-based radiometric assay of product formation by 2-PS, CHS and CHS mutants; assay type: biochemical; conditions: for polyketide product formed: TLC, triple mutant and 2-PS confirmed by LC/MS; for starter molecule accepted: p-coumaroyl-CoA or acetyl-CoA as starter
Excerpt: Comparison of the initiation/elongation cavities of 2-PS and CHS reveal four amino acid differences. In 2-PS, Leu202, Met259, Leu261, and Ile343 replace Thr197, Ile254, Gly256, and Ser338, respectively, of CHS. These four substitutions reduce cavity volume from 923 Å^3 in CHS to 274 Å^3 in 2-PS. A model of methylpyrone in the 2-PS cavity, based on the position of acetoacetyl-CoA, emphasizes the volume change compared to the CHS-naringenin complex (Accession No. 1CGK). Leu202 and Ile343 occlude the portion of the 2-PS cavity corresponding to the coumaroyl-binding site of CHS. Replacement of Gly256 in CHS by Leu261 in 2-PS severely reduces the size of the active site cavity. Substitution of Met259 in 2-PS for Ile254 in CHS produces a modest alteration in cavity volume. To examine the functional importance of these amino acid differences, the initiation/elongation cavity of CHS was altered by mutagenesis to resemble that of 2-PS. The resulting mutant proteins were screened for activity using either p-coumaroyl-CoA or acetyl-CoA as starter molecules. Activities of 2-PS, CHS, and the CHS mutants were determined by monitoring product formation using a TLC-based radiometric assay. Assay conditions were 100 mM Hepes (pH 7.0), 30 μM starter-CoA (either p-coumaroyl-CoA or acetyl-CoA), and 60 μM [^14C]-malonyl-CoA (50,000 cpm) in 100 μl at 25° C. Reactions were quenched with 5% acetic acid, extracted with ethyl acetate, and applied to TLC plates and developed. Due to the spontaneous cyclization of chalcone into the flavanone naringenin, activities of CHS are referenced to naringenin formation.
The x-ray crystal structures of 2-PS and CHS imply that the size of the active site cavity limits polyketide length and modulates folding of the polyketide chain. […] Since the T197L, G256L, and S338I mutants altered product formation, a CHS triple mutant was generated. […] LC/MS/MS analysis was performed by the Mass Spectroscopy facility of the Scripps Research Institute. Scaled-up assays (2 ml reaction volume) with the CHS T197L/G256L/S338I mutant and 2-PS were performed. Extracts were analyzed on a Hewlett-Packard HP1100 MSD single quadrupole mass spectrometer coupled to a ZorbaxSB-C18 column (5 μm, 2.1 mm×150 mm). HPLC conditions were as follows: gradient system from 0 to 100% methanol in water (each containing 0.2% acetic acid) within 10 min; flow rate 0.25 ml min^−1. LC/MS/MS data from both reactions were identical: 6-methyl-4-hydroxy-2pyrone, Rt=5.068 min; [M-H]^−125 (41); [M-H—CO2]^−[…] (100). The numbers show m/z values with relative intensities in parenthesis. The observed fragmentation matches previously published data.

CHS = conditions: covalently modifies Cys164; Lanz et al. 1991; cited from earlier work
[2] = Functional assay of malonyl-CoA decarboxylation by the C164S mutant; assay type: biochemical; conditions: determined crystallographically and confirmed by a functional assay
Excerpt: Asn336 appears to play a crucial role in the decarboxylation reaction. […] In the hexanoyl-CoA complex, the side chain amide of Asn336 provides a hydrogen bond to the carbonyl oxygen of the thioester. This interaction would stabilize the enolate anion resulting from decarboxylation of malonyl-CoA (see FIG. 6). At the same time, the lack of formal positive charge at Asn336 may preserve the partial carbanion character of this resonance-stabilized anion, and thus the nucleophilicity of the carbanion form.

[3] = 30 μM starter-CoA, 60 μM [14C]-malonyl-CoA, pH 7.0, 25° C.

**Q.** Which “preference for p-coumaroyl-CoA versus acetyl-CoA as starter molecule” value [1, 3] does the source give for T197L: CHS mutant T197L of SEQ ID NO:1 here?
**A.** 10 fold

**Q.** And the polyketide product formed [1]?
**A.** do not form chalcone; also recorded: form a distinct product

**Q.** With G256L: CHS mutant G256L of SEQ ID NO:1 as the molecule, how does the “preference for acetyl-CoA over coumaroyl-CoA as starter molecule” value [1, 3] read?
**A.** 3 fold

**Q.** What about the polyketide product formed [1] of the same molecule?
**A.** do not form chalcone

**Q.** Which “preference for p-coumaroyl-CoA versus acetyl-CoA as starter molecule” value [1, 3] does the source give for S338I: CHS mutant S338I of SEQ ID NO:1 here?
**A.** 3 fold

**Q.** What about the polyketide product formed [1] of the same molecule?
**A.** do not form chalcone; also recorded: form a distinct product

**Q.** Which “inhibition of CHS” value (CHS) does the source give for `C/C=C/C/C=C/CCC(=O)[C@H]1O[C@H]1C(N)=O` [Cerulenin] here?
**A.** potent irreversible inhibitor

**Q.** For “2-PS: 2-Pyrone synthase from Gerbera hybrida, expressed in E. coli”, which polyketide product formed [1] is on record?
**A.** produces the triketide methylpyrone

**Q.** What about the starter molecule accepted [1] of the same molecule?
**A.** accepts acetyl-CoA but does not use p-coumaroyl-CoA

**Q.** What does the source list for “CHS I254M: CHS mutant I254M of SEQ ID NO:1”?
**A.** specific activity compared with wild-type enzyme [1]: functionally comparable to wild-type enzyme with a modest reduction in specific activity; polyketide product formed [1]: yields chalcone

**Q.** With “T197L/G256L/S338I: CHS triple mutant with active site sterically analogous to 2-pyrone synthase” as the molecule, how does the polyketide product formed [1] read?
**A.** produces only methylpyrone

**Q.** And the starter molecule accepted [1]?
**A.** only accepts acetyl-CoA (or malonyl-CoA)

B1: C164S: CHS mutant C164S of SEQ ID NO:1 (protein, UniProt P30074 1-389, looked up, variant C164S)
Chalcone synthase 2: MVSVSEIRKAQRAEGPATILAIGTANPANCVEQSTYPDFYFKITNSEHKTELKEKFQRMCDKSMIKRRYMYLTEEILKENPNVCEYMAPSLDARQDMVVVEVPRLGKEAAVKAIKEWGQPKSKITHLIVCTTSGVDMPGADYQLTKLLGLRPYVKRYMMYQQGSFAGGTVLRLAKDLAENNKGARVLVVCSEVTAVTFRGPSDTHLDSLVGQALFGDGAAALIVGSDPVPEIEKPIFEMVWTAQTIAPDSEGAIDGHLREAGLTFHLLKDVPGIVSKNITKALVEAFEPLGISDYNSIFWIAHPGGPAILDQVEQKLALKPEKMNATREVLSEYGNMSSACVLFILDEMRKKSTQNGLKTTGEGLEWGVLFGFGPGLTIETVVLRSVAI
**Q.** Which “decarboxylation of malonyl-CoA / residual catalytic activity” value [2] does the source give for B1 here?
**A.** retains limited catalytic activity; also recorded: produces acetyl-CoA
